The results in this text go back to the supplement of paper PMC11061612.

Experiment in all cases: Bliss excess, mean over the matrix (fraction); higher = more synergy
The test system of assay [1] is Daudi (Burkitt's Lymphoma). In a few lines:
(§1)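 After 24 hours at 37°C and 5% CO2 in 1536-well plates, cells in DMEM/F12 or RPMI plus 10% FBS received two-drug dose matrices for 72 hours. Viability came from CellTiter-Glo 2.0 luminescence and was scaled as inhibition, anchored at 0 by vehicle wells and at 1 by blank wells. Combination Emax is taken as the second-highest inhibition in the matrix, and Bliss excess as the observed combination effect less EA + EB − EA·EB, with EA and EB the single-agent effects.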

Assay [2] has as its system NCI-H1048 (Small Cell Lung Carcinoma). Summed up:
as §1

In assay [3] the test system is GRANTA-519 (B-Cell Non-Hodgkin's Lymphoma). In a few lines:
as §1

Assay [4] has as its system NCI-H1944 (Lung Adenocarcinoma). In a few lines:
as §1

The test system of a further assay is GCIY (Gastric Carcinoma). In a few lines:
as §1

The test system of assay [5] is SBC-3 (Small Cell Lung Carcinoma). Summed up: as §1
In assay [6] the test system is ATN-1 (T-Lymphoblastic Leukemia). Summed up:
as §1

The test system of assay [7] is NCI-H835 (Other Solid Carcinomas). Summed up: as §1
The test system of assay [8] is SNU-1 (Gastric Carcinoma). In a few lines:
as §1

For assay [9], the system named is JURL-MK1 (Chronic Myelogenous Leukemia). Summed up:
as §1

In assay [10] the test system is MRK-nu-1 (Breast Carcinoma). In a few lines: as §1
The subject of assay [11] is RPMI-8402 (T-Lymphoblastic Leukemia). Summed up:
as §1

Assay [12] has as its system OVKATE (Ovarian Carcinoma). Summed up:
as §1

Assay [13] concerns NCI-H1975 (Lung Adenocarcinoma). In a few lines:
as §1

Assay [14] relates to NCI-H1435 (Non-Small Cell Lung Carcinoma). Summed up:
as §1

Assay [15] concerns NTERA-2-cl-D1 (Other Solid Carcinomas). In a few lines:
as §1

Each structure is given as a SMILES string.

Turning to `COc1nnc2ccc(N3CCC(c4ccc(OCCN5CCN(C)C(=O)[C@H]5C)cc4)CC3)nn12` [AZD5153] + C=CCn1c(=O)c2cnc(Nc3ccc(N4CCN(C)CC4)cc3)nc2n1-c1cccc(C(C)(C)O)n1 [AZD1775] (first compound max 1 µM, partner max 1 µM), the Bliss excess in assay [1] was -0.0642; in [2], -0.0823; in assay [3], -0.0227; in [4], 0.0333; with GCIY (Gastric Carcinoma), -0.0136; in assay [5], -0.0111. The Bliss excess was -0.0494 in assay [6]; -0.0618 in [7]; -0.0873 in assay [8]; -0.0006 in assay [9]; -0.0354 in assay [10]; -0.0212 in assay [11]. Also, the Bliss excess was -0.0373 in [12], 0.0251 in assay [13], 0.0179 in assay [14] and 0.0115 in assay [15].

In the case of `COc1nnc2ccc(N3CCC(c4ccc(OCCN5CCN(C)C(=O)[C@H]5C)cc4)CC3)nn12` [AZD5153] + CC1(C)CCC(CN2CCN(c3ccc(C(=O)NS(=O)(=O)c4ccc(NCC5CCOCC5)c([N+](=O)[O-])c4)c(Oc4cnc5[nH]ccc5c4)c3)CC2)=C(c2ccc(Cl)cc2)C1 [Venetoclax] (first compound max 1 µM, 7x7, partner max 1 µM), the Bliss excess is -0.0458 in assay [1]; 0.0165 in assay [2]; 0.0237 in assay [3]; -0.0824 in assay [4]; -0.0592 with GCIY (Gastric Carcinoma); -0.0545 in assay [5]. Besides, the Bliss excess in assay [6] is -0.0279; in assay [7], -0.125; in [8], -0.0523; in assay [9], -0.0676; in assay [10] it was -0.0537; in assay [11], 0.0135. Also, the Bliss excess in assay [12] was -0.0037; in assay [13], -0.0579; in [14] it was -0.0143; in assay [15], -0.0251.

As to `COc1nnc2ccc(N3CCC(c4ccc(OCCN5CCN(C)C(=O)[C@H]5C)cc4)CC3)nn12` [AZD5153] + CCN(CCO)CCCOc1ccc2c(Nc3cc(CC(=O)Nc4cccc(F)c4)[nH]n3)ncnc2c1 [AZD2811] (first compound max 1 µM, 7x7, partner max 1 µM), the Bliss excess in assay [1] is 0.0303; in assay [2], -0.042; in assay [3], 0.0771; in assay [4], -0.0185; in the assay on GCIY (Gastric Carcinoma) it was -0.0388; in assay [5], -0.0225. For the same compound, the Bliss excess in [6] was -0.127; in [7], -0.0626; in assay [8] it was 0.0024; in [9], -0.0258; in assay [10], 0.0096; in assay [11] it was -0.031. Further, the Bliss excess in assay [12] is -0.0668; in [13], -0.005; in assay [14], 0.0052; in assay [15], -0.0385.

Consider `COc1nnc2ccc(N3CCC(c4ccc(OCCN5CCN(C)C(=O)[C@H]5C)cc4)CC3)nn12` [AZD5153] + C[C@@H]1COCCN1C2=NC(=NC(=C2)C3(CC3)[S@](=N)(=O)C)C4=C5C=CNC5=NC=C4 [AZD6738] (first compound max 1 µM, 7x7, partner max 10 µM), for which the Bliss excess in assay [1] was 0.0365; in assay [2], 0.029; in assay [3], 0.0096; in assay [4], 0.0234; in the assay with GCIY (Gastric Carcinoma), 0.0327; in assay [5] it was -0.032. For the same compound, the Bliss excess in assay [6] is 0.0411; in [7] it was -0.0811; in assay [8], 0.0228; in assay [9], 0.0077; in [10] it was -0.0072; in assay [11] it was -0.0209. The Bliss excess in assay [12] is -0.0027; in assay [13], -0.0013; in [14], 0.0222; in assay [15], 0.0005.

For the compound `COc1nnc2ccc(N3CCC(c4ccc(OCCN5CCN(C)C(=O)[C@H]5C)cc4)CC3)nn12` [AZD5153] + Cc1c2c(nn1C)CSCc1cc(n(C)n1)CSc1cc(c3ccccc3c1)OCCCc1c(C(=O)O)n(C)c3c-2c(Cl)ccc13 [AZD5991] (first compound max 1 µM, 7x7, partner max 1 µM), the Bliss excess is 0.0407 in assay [1]; 0.0059 in assay [2]; -0.0164 in assay [3]; -0.0461 in [4]; -0.0727 in the assay on GCIY (Gastric Carcinoma); -0.0503 in assay [5]. The Bliss excess in assay [6] was -0.0304; in assay [7], -0.115; in assay [8], 0.0194; in [9], -0.055; in assay [10], 0.0346; in assay [11], 0.0279. Moreover, the Bliss excess in assay [12] is -0.0209; in [13] it was -0.0138; in assay [14] it was -0.0108; in assay [15], 0.0698.

As to `COc1nnc2ccc(N3CCC(c4ccc(OCCN5CCN(C)C(=O)[C@H]5C)cc4)CC3)nn12` [AZD5153] + Cn1cnc2c(F)c(Nc3ccc(Br)cc3Cl)c(C(=O)NOCCO)cc21 [Selumetinib] (first compound max 1 µM, 7x7, partner max 10 µM), the Bliss excess in [1] is -0.059; in [2] it was -0.0108; in assay [3], -0.0143; in [4], -0.0008; in the assay on GCIY (Gastric Carcinoma) it was 0.0023; in assay [5], -0.0811. Further, the Bliss excess in [6] is 0.0098; in assay [7] it was -0.0256; in assay [8] it was 0.063; in [9] it was 0.0397; in assay [10], -0.0169; in assay [11], -0.0608. The Bliss excess is -0.0413 in assay [12], -0.0045 in assay [13], 0.0113 in assay [14] and 0.0236 in assay [15].

In the case of `NC1(C(=O)N[C@@H](CCO)c2ccc(Cl)cc2)CCN(c2ncnc3[nH]ccc23)CC1` [Capivasertib] + CC(=O)c1c(C)c2cnc(Nc3ccc(N4CCNCC4)cn3)nc2n(C2CCCC2)c1=O [Palbociclib] (first compound max 10 µM, 7x7, partner max 10 µM), the Bliss excess is 0.0065 in assay [1]; -0.0269 in [2]; -0.0273 in assay [3]; 0.02 in assay [4]; -0.0402 in the assay on GCIY (Gastric Carcinoma); 0.0265 in assay [5]. Besides, the Bliss excess in assay [6] was -0.0217; in [7], -0.0562; in [8], 0.0634; in [9] it was -0.0233; in [10], 0.001; in assay [11], -0.0296. Also, the Bliss excess in assay [12] is -0.018; in [13], -0.0456; in assay [14], -0.0245; in assay [15], 0.0373.
